In brackets after ≈: the same amount, converted by molar mass. Read-outs that look alike come from different tables or passages of the source.
Columns and labels:
[1] = system: Acinetobacter spp. isolates (n = 104); details: Acinetobacter spp. (n = 104); CLSI breakpoints
Experimental: (§1) Comparator antibiotics were supplied by Micromyx, and stock solutions were prepared on the first day of testing using solvents recommended by CLSI (1). Stock solutions of all compounds were made at 40× the final testing concentration and stored at −80° C. prior to testing. Information regarding compound source, catalog and lot number, testing concentrations and drug diluent for the comparators and test agent are detailed below in Table 3.
(§2) The test organisms evaluated in this study consisted of clinical isolates from the Micromyx Repository and reference isolates from the American Type Culture Collection (ATCC; Manassas, VA). The clinical isolates were obtained from USA hospitals. Upon initial receipt at Micromyx, the organisms were sub-cultured onto an appropriate agar medium. Following incubation, colonies were harvested from these plates and cell suspensions prepared and frozen at −80° C. with a cryoprotectant. Prior to testing, the isolates were streaked from frozen vials onto Trypticase Soy Agar with 5% sheep blood (Becton Dickenson [BD]; Sparks, MD; Lot Nos. 7173618, 7166759, 7208688, 72144895, 7228505 and Remel Lenexa, KS Lot No. 212574). Plates were incubated at 35° C. overnight.
(§3) Mueller Hinton II broth (MHB II; BD; Lot Nos. 6258541 and 7143896) was used for MIC testing of aerobic organisms.
(§4) MIC values were determined using a broth microdilution procedure described by CLSI (1, 3). Automated liquid handlers (Multidrop 384, Labsystems, Helsinki, Finland; Biomek 2000 and Biomek FX, Beckman Coulter, Fullerton CA) were used to conduct serial dilutions and liquid transfers.
(§5) To prepare the drug mother plates, which would provide the serial drug dilutions for the replicate daughter plates, the wells of columns 2-12 of standard 96-well microdilution plates (Costar 3795) were filled with 150 μl of the designated diluent for each row of drug. The test articles and comparator compounds (300 μl at 40× the highest concentration to be tested) were dispensed into the appropriate wells in column 1. The Biomek 2000 was then used to make 2-fold serial dilutions in the mother plates from column 1 through column 11. The wells of Column 12 contained no drug and served as the organism growth control wells for the assay.
(§6) The daughter plates were loaded with 185 μL per well of MHB II using the Multidrop 384. The daughter plates were completed on the Biomek FX instrument which transferred 5 μL of drug solution from each well of a mother plate to the corresponding well of each daughter plate in a single step. A standardized inoculum of each test organism was prepared per CLSI methods (1). The inoculum for each organism was dispensed into sterile reservoirs divided by length (Beckman Coulter), and the Biomek 2000 was used to inoculate the plates. Daughter plates were placed on the Biomek 2000 work surface in reverse orientation so that inoculation took place from low to high drug concentration.
(§7) Plates were stacked 3-4 high, covered with a lid on the top plate, placed in plastic bags, and incubated at 35° C. for 16 to 20 hrs. Following incubation, the microplates were removed from the incubator and viewed from the bottom using a plate viewer. […] The MIC was read and recorded as the lowest concentration of drug that inhibited visible growth of the organism.
(§8) Clinical breakpoints to determine percent resistance within a given organism group were obtained from CLSI (3), with the exception of colistin for K. pneumoniae, Enterobacter spp., and E. coli, which are only available from EUCAST.

[2] = system: Escherichia coli isolates (n = 101); details: Escherichia coli (n = 101); CLSI breakpoints, colistin EUCAST
Experimental: as §1, §2, §3, §4, §5, §6, §7, §8

[3] = system: Klebsiella pneumoniae isolates (n = 101)
Experimental: as §1, §2, §3, §4, §5, §6, §7, §8

[4] = system: Pseudomonas aeruginosa isolates (n = 109); details: Pseudomonas aeruginosa (n = 109); CLSI breakpoints
Experimental: as §1, §2, §3, §4, §5, §6, §7, §8

[5] = system: Enterobacter spp. isolates (Enterobacter aerogenes and E. cloacae, n = 102); test: organism not typed; details: for % R (percent of isolates resistant): CLSI breakpoints, colistin EUCAST; for MIC: read-out: Mode (MIC)
Experimental: as §1, §2, §3, §4, §5, §6, §7, §8

[6] = system: Enterococcus faecium isolates (n = 104); test: microbe, parasite or virus in culture; details: for % R (percent of isolates resistant): CLSI breakpoints; for MIC: read-out: Mode (MIC)
Experimental: as §1
as §2, with “Prior to testing, the isolates were streaked from frozen vials onto Trypticase Soy Agar with 5% sheep blood (Becton Dickenson [BD]; Sparks, MD; Lot Nos. 7173618, 7166759, 7208688, 72144895, 7228505 and Remel Lenexa, KS Lot No. 212574).” left out
MIC values were determined using a broth microdilution procedure described by CLSI (1, 3).
The test articles and comparator compounds (300 μl at 40× the highest concentration to be tested) were dispensed into the appropriate wells in column 1. The Biomek 2000 was then used to make 2-fold serial dilutions in the mother plates from column 1 through column 11. The wells of Column 12 contained no drug and served as the organism growth control wells for the assay.
as §6, with “The” for “The daughter plates were loaded with 185 μL per well of MHB II using the Multidrop 384. The”
as §7, §8

[7] = system: Staphylococcus aureus isolates (n = 104); test: microbe, parasite or virus in culture; details: for % R (percent of isolates resistant): CLSI breakpoints
Experimental: as §1, §2, §3, §4, §5, §6, §7, §8

[8] = Klebsiella pneumoniae (n = 101), CLSI breakpoints, colistin EUCAST
[9] = Staphylococcus aureus (n = 104), all methicillin-resistant
[10] = Staphylococcus aureus (n = 104)

Row | Compound | % R (percent of isolates resistant) [1] [%] | % R (percent of isolates resistant) [2] [%] | % R (percent of isolates resistant) [3] | % R (percent of isolates resistant) [3, 8] [%] | % R (percent of isolates resistant) [4] [%] | MIC50 [5] [µg/mL] | MIC90 [5] [µg/mL] | % R (percent of isolates resistant) ([5]; Enterobacter spp. (n = 102)) [%] | MIC [5] [µg/mL] | MIC50 ([6]; Enterococcus faecium) [µg/mL] | MIC90 ([6]; Enterococcus faecium) [µg/mL] | % R (percent of isolates resistant) ([6]; Enterococcus faecium (n = 104)) [%] | MIC ([6]; Enterococcus faecium) [µg/mL] | MIC range [7, 9] [µg/mL] | % R (percent of isolates resistant) [7, 10] [%] | other results
1 | CC(C)(O/N=C(\C(=O)N[C@@H]1C(=O)N2C(C(=O)[O-])=C(C[n+]3ccccc3)CS[C@H]12)c1csc(N)n1)C(=O)O [Ceftazidime] | 61.5 | 33.6 | Over 80% | 80.2 | 14.6 | 1 (≈ 1.83 µM) | > 32 | 36.3 | > 32 | – | – | – | – | – | – | –
2 | C[C@H]1c2cccc(O)c2C(=O)C2=C(O)[C@]3(O)C(=O)C(C(N)=O)=C(O)[C@@H](N(C)C)[C@@H]3[C@@H](O)[C@@H]21 [Doxycycline] | – | – | – | – | – | – | – | – | – | 4 (≈ 9 µM) | 16 (≈ 36 µM) | 25 | 0.12 (≈ 0.27 µM) | 0.06 to 8 | 0 | –
3 | NC[C@H]1O[C@H](O[C@H]2[C@H](O)[C@@H](O[C@H]3O[C@H](CO)[C@@H](O)[C@H](N)[C@H]3O)[C@H](N)C[C@@H]2N)[C@H](N)C[C@@H]1O [Tobramycin] | 49.0 | 21.7 | over 60% | 59.4 | 7.4 | 0.5 (≈ 1.07 µM) | 1 (≈ 2.14 µM) | 3.9 | 0.5 (≈ 1.07 µM) | – | – | – | – | – | – | MIC range ([5]; Enterobacter spp. (n = 102)): 0.12 to 64 µg/mL
4 | C[C@H]1COc2c(N3CCN(C)CC3)c(F)cc3c(=O)c(C(=O)O)cn1c23 [Levofloxacin] | 66.3 | 46.5 | over 60% | 67.3 | 21.1 | 0.06 (≈ 0.166 µM) | 0.5 (≈ 1.38 µM) | 4.9 | 0.03 (≈ 0.083 µM) | > 8 | > 8 | – | > 8 | – | 82.7 | MIC90 [7, 9]: >8 µg/mL; % R (percent of isolates resistant) ([7]; Staphylococcus aureus (n = 104), listed as levofloxacin): Over 80%
5 | CC(=O)NC[C@H]1CN(c2ccc(N3CCOCC3)c(F)c2)C(=O)O1 [Linezolid] | – | – | – | – | – | – | – | – | – | 2 (≈ 5.93 µM) | 4 (≈ 11.9 µM) | 3.8 | 2 (≈ 5.93 µM) | 1 to 8 | 1.9 | MIC range ([6]; Enterococcus faecium (n = 104)): 1 to 32 µg/mL; MIC range ([6]; Enterococcus faecium (n = 104), listed as linezolid): 1 to 32 µg/mL
6 | CN[C@H](CC(C)C)C(=O)N[C@H]1C(=O)N[C@@H](CC(N)=O)C(=O)N[C@H]2C(=O)N[C@H]3C(=O)N[C@H](C(=O)N[C@H](C(=O)O)c4cc(O)cc(O)c4-c4cc3ccc4O)[C@H](O)c3ccc(c(Cl)c3)Oc3cc2cc(c3O[C@@H]2O[C@H](CO)[C@@H](O)[C@H](O)[C@H]2O[C@H]2C[C@](C)(N)[C@H](O)[C@H](C)O2)Oc2ccc(cc2Cl)[C@H]1O [Vancomycin] | – | – | – | – | – | – | – | – | – | 1 (≈ 0.69 µM) | > 32 | 47.1 | > 32 | 0.5 to 2 | 0 | MIC90 ([6]; Enterococcus faecium (n = 104)): >32 µg/mL; MIC50 ([7]; Staphylococcus aureus): 1 µg/mL (≈ 0.69 µM); MIC90 ([7]; Staphylococcus aureus): 1 µg/mL (≈ 0.69 µM); MIC ([7]; Staphylococcus aureus, read-out: Mode (MIC)): 1 µg/mL (≈ 0.69 µM)
7 | CCC[C@@H]1C[C@@H](C(=O)N[C@@H]([C@H]2O[C@H](SC)[C@H](O)[C@@H](O)[C@H]2O)[C@H](C)Cl)N(C)C1 [Clindamycin] | – | – | – | – | – | – | – | – | – | > 16 | > 16 | – | > 16 | – | 37.5 | MIC90 [7, 9]: >16 µg/mL

From patent publication US20240115654A1, “INTRAVENOUS ADMINISTRATION OF ENGINEERED ANTIMICROBIAL AMPHIPHILIC PEPTIDES” (priority 2021, published 2024)
